The values below are quoted from earlier work in patent publication US11786526B2, “Pharmaceutical composition comprising rosuvastatin and ezetimibe and a preparation method thereof” (SANOFI, priority 2016, dated 2023).

Test in data set [1]: not given
This is another data set of the same source.

Take `O=C1[C@H](CC[C@H](O)c2ccc(F)cc2)[C@@H](c2ccc(O)cc2)N1c1ccc(F)cc1` [Ezetimibe, (3R,4S)-1-(4-fluorophenyl)-3-[(3S)-3-(4-fluorophenyl)-3-hydroxypropyl]-4-(4-hydroxyphenyl)azetidin-2-one]: the Solubility in water entry is given as “almost insoluble in water”.
In the case of `CC(C)c1nc(N(C)S(C)(=O)=O)nc(-c2ccc(F)cc2)c1/C=C/[C@@H](O)C[C@@H](O)CC(=O)O` [rosuvastatin, (3R,5S,6E)-7-[4-(4-fluorophenyl)-2-(N-methylmethanesulfonamido)-6-(propan-2-yl)pyrimidin-5-yl]-3,5-dihydroxyhept-6-enoic acid], the “Stability in an acidic environment” value in data set [1] was “unstable in an acidic environment”.
